According to ChEMBL document CHEMBL1144769 (J Med Chem, 2008):
Active and inactive are the calls of the source. No cut-off for these calls is given here.

Columns and labels:
[1] = target: T1, Prostaglandin G/H synthase 1 (Homo sapiens, UniProt P23219); test: Inhibition of COX1
[2] = target: T2, Prostaglandin G/H synthase 2 (Homo sapiens, UniProt P35354); test: Inhibition of COX2
T2 sequence (P35354 whole entry): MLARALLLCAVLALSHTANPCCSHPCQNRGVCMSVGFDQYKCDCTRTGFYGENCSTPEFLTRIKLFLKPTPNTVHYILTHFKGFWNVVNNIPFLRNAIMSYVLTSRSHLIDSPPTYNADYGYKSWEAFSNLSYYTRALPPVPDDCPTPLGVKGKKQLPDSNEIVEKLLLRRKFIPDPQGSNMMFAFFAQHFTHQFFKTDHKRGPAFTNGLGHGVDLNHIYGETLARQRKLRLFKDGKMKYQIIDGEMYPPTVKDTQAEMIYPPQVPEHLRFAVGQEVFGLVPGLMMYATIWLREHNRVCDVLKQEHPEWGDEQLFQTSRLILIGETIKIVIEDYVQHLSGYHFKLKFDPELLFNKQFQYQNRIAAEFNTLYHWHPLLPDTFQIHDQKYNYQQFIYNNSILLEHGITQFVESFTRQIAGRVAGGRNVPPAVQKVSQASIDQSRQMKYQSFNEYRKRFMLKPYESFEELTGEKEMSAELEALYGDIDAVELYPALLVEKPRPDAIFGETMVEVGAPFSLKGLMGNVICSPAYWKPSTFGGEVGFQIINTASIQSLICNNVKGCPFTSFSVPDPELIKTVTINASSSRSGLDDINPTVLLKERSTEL

[3] = target: T1, Prostaglandin G/H synthase 1; test: Inhibition of COX1 at 100 uM
Rattus norvegicus [4] = test: Induction of gastric ulcer formation in Sprague-Dawley rat at 10 mg/kg, po after 5 hrs; format: organism-based, Stomach; parameters: dose 10 mg/kg, route oral; conditions: in vivo
Mus musculus [5] = test: Analgesic activity in ICR mouse assessed as reduction in number of acetic acid-induced writhing at 10 mg/kg, po after 10 mins; format: functional, organism-based; parameters: dose 10 mg/kg
Rattus norvegicus [6] = test: Induction of gastric ulcer formation in Sprague-Dawley rat at 30 mg/kg, po after 5 hrs; format: organism-based, Stomach; parameters: dose 30 mg/kg, route oral; conditions: in vivo
Mus musculus [7] = test: Analgesic activity in ICR mouse assessed as reduction in number of acetic acid-induced writhing at 30 mg/kg, po after 10 mins; format: functional, organism-based; parameters: dose 30 mg/kg
Rattus norvegicus [8] = test: Analgesic activity in Sprague-Dawley rat assessed as reduction in formalin-induced pain at 30 mg/kg, po; format: functional, organism-based; parameters: dose 30 mg/kg
Mus musculus [9] = test: Acute toxicity in ICR mouse upto 300 mg/kg, po upto 14 days; format: organism-based; parameters: dose 300 mg/kg, route oral; conditions: in vivo, 336 h
[10] = Cmax in Sprague-Dawley rat at 30 mg/kg, po; format: ADME, organism-based; parameters: dose 30 mg/kg, route oral; conditions: in vivo
Rattus norvegicus [11] = test: Induction of gastric ulcer formation in Sprague-Dawley rat at 30 mg/kg, po administered daily for 1 week; format: organism-based, Stomach; parameters: dose 30 mg/kg, route oral; conditions: in vivo, 168 h

T1 sequence (P23219 whole entry): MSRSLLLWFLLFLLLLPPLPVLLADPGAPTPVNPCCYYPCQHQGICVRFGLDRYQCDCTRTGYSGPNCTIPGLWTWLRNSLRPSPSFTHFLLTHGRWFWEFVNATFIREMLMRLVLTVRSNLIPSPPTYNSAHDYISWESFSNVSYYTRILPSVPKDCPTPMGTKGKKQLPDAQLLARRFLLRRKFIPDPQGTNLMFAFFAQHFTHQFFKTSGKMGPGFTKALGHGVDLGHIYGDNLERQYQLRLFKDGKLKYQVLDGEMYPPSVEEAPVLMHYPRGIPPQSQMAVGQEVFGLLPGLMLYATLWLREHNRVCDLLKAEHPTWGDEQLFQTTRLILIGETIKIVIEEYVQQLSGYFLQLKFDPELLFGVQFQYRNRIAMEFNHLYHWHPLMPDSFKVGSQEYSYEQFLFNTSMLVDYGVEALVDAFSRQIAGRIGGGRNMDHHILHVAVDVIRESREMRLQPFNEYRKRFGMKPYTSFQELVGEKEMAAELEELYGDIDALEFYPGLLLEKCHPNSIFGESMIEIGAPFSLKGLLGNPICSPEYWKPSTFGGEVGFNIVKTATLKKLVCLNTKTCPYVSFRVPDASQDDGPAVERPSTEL

SMILES	IC50 [1]	IC50 [2]	inhibition [3]	further results
Nc1ccnc(NC(=O)c2cccc(C(F)(F)F)c2)c1	> 100 µM	> 100 µM		
Nc1ccc(C(=O)Nc2ccccc2C(F)(F)F)cc1	> 100 µM	> 100 µM		
Nc1ccccc1C(=O)Nc1ccc(Cl)cc1			52%	
Nc1cccnc1NC(=O)c1cccc(C(F)(F)F)c1	> 100 µM	> 100 µM		
Nc1ccc(C(=O)Nc2cccc(C(F)(F)F)c2)cc1	> 100 µM	> 100 µM		
CCN(C(=O)c1ccccc1N)c1ccc(Cl)cc1			23%	
Nc1ccc(NC(=O)c2ccc(Cl)cc2)cc1			49%	
Nc1ccc(NC(=O)c2ccccc2)cc1			54%	
O=C(Nc1ccc(C(F)(F)F)cc1)c1ccccc1[N+](=O)[O-]			31%	
Nc1ccc(NC(=O)c2ccccc2C(F)(F)F)cc1	> 100 µM	> 100 µM		
Nc1ccccc1C(=O)Nc1cccc(C(F)(F)F)c1	10 µM	> 100 µM	90%	
O=C(Nc1ccc(C(F)(F)F)cc1)c1cccc([N+](=O)[O-])c1			13%	
Cc1ccc(NC(=O)c2ccc(N)cc2)cc1			56%	
Nc1ccccc1NC(=O)c1ccc(C(F)(F)F)cc1	88 µM	> 100 µM	53%	
Nc1ccccc1NC(=O)c1cccc(C(F)(F)F)c1	72 µM	> 100 µM		
COc1ccc(NC(=O)c2ccc(Cl)cc2)cc1			35%	
Nc1ccc(NC(=O)c2cccc(C(F)(F)F)c2)nc1	12 µM	> 100 µM		
Nc1ccc(C(=O)Nc2ccc(C(F)(F)F)cc2)nc1	> 100 µM	> 100 µM		
COc1ccc(-c2nc(C(=O)N3CCN(C)CC3)sc2-c2ccc(OC)cc2)cc1 [FR-122047]	0.028 µM	65 µM		
Nc1cccnc1NC(=O)c1ccc(C(F)(F)F)cc1	> 100 µM	> 100 µM		
Nc1ccccc1C(=O)Nc1ccccc1			64%	
Nc1ccc(C(=O)Nc2ccc(C(F)(F)F)cn2)cc1	10 µM	> 100 µM		
CCN(C(=O)c1ccccc1N)c1ccccc1			5%	
Nc1ccnc(NC(=O)c2ccc(C(F)(F)F)cc2)c1	> 100 µM	> 100 µM		

SMILES	IC50 [1]	IC50 [2]	inhibition [3]	further results
Nc1ccc(C(=O)Nc2ccccc2)cc1			40%	
Nc1ccccc1C(=O)Nc1ccccc1C(F)(F)F	> 100 µM	> 100 µM	32%	
Cc1ccccc1NC(=O)c1ccccc1N			53%	
Nc1cccc(C(=O)Nc2ccccc2C(F)(F)F)c1	> 100 µM	> 100 µM		
O=C(Nc1ccc(C(F)(F)F)cc1)c1ccc([N+](=O)[O-])cc1			0%	
Cc1ccc(C(=O)Nc2ccc(N)cc2)cc1			53%	
Cc1cccc(NC(=O)c2ccccc2N)c1			67%	
Nc1ccc(NC(=O)c2ccc(C(F)(F)F)cc2)cc1	29 µM	> 100 µM	63%	
COc1ccc2c(c1)c(CC(=O)O)c(C)n2C(=O)c1ccc(Cl)cc1 [INDOMETHACIN]				Activity (Rattus norvegicus [4]): Active; Activity (Mus musculus [5]): Active
Nc1cccc(NC(=O)c2ccccc2C(F)(F)F)c1	94 µM	> 100 µM		
Nc1ccc(C(=O)Nc2ccc(C(F)(F)F)cc2)cc1	30 µM	> 100 µM	71%	
Cc1ccc(NC(=O)c2ccc(Cl)cc2)cc1			23%	
Nc1ccc(C(=O)Nc2ccc(Cl)cc2)cc1			53%	
Nc1cccc(C(=O)Nc2ccc(C(F)(F)F)cc2)c1	19 µM	> 100 µM	70%	
Nc1cccc(NC(=O)c2ccc(C(F)(F)F)cc2)c1	14 µM	> 100 µM	76%	
Nc1cccc(NC(=O)c2cccc(C(F)(F)F)c2)c1	7.2 µM	> 100 µM		
Cc1ccc(NC(=O)c2ccccc2N)cc1			57%	
CC(=O)Oc1ccccc1C(=O)O [ASPIRIN]				Activity (Rattus norvegicus [6]): Active
Nc1ccc(NC(=O)c2ccc(C(F)(F)F)cc2)nc1	0.8 µM	210 µM		Activity (Mus musculus [5]): Active; Activity (Mus musculus [7]): Active; Activity (Rattus norvegicus [8]): Active; Activity (Mus musculus [9]): Non-toxic; Cmax [10]: 12 µM; Activity (Rattus norvegicus [11]): Not Active
Nc1ccccc1NC(=O)c1ccccc1C(F)(F)F	> 100 µM	> 100 µM		
Nc1ccccc1C(=O)Nc1ccc(C(F)(F)F)cc1	16 µM	> 100 µM	68%	
Nc1cccc(C(=O)Nc2cccc(C(F)(F)F)c2)c1	> 100 µM	> 100 µM		
Nc1ccc(NC(=O)c2cccc(C(F)(F)F)c2)cc1	62 µM	> 100 µM		
